Measured values from USRE38424E1 (The United States of America as represented by the …, priority 1994, dated 2004).
“And” between values parts separate entries of the source, which are not always exact repeats. Equal entries are not always repeated. Where two headings read alike, the source gives them in different places.

Tests used:
[1] = system: epithelial ovarian cancer; assay: Phase I taxol dose escalation with G-CSF support: disease response; assay type: in vivo, human
Description: Patients with histologically proven epithelial ovarian cancer with bidimensionally measurable disease were candidates for the study.
All patients received subsequent cycles of therapy on the general medical oncology in-patient ward.
A G-CSF dose of 10 μg/kg/day was used. […] This was determined by checking WBC and platelet counts on a twice weekly basis.
Patients who had normalization of serum CA-125 levels and complete resolution of all assessable disease confirmed at peritoneoscopy Were assessed as having a clinical complete response to therapy (CCR). A partial response (PR) was designated for individuals experiencing a greater than 50% reduction in the sum of the products of the greatest perpendicular diameters of all measurable lesions that lasted at least one month. A minor response (MR) was defined as a greater than 25% but less than 50% reduction in the sum of the products of the greatest perpendicular diameters of all measurable lesions lasting at least one month. Patients with a less than 25% reduction in tumor volume after two cycles of therapy were considered to be nonresponders and were taken off therapy. Patients who experienced greater than 25% reduction in tumor volume and/or a more than 50% reduction in CA-125 level received two cycles beyond maximal response. Patients with CCR received two cycles beyond peritoneoscopy.

[2] = system: recurrent advanced stage epithelial ovarian cancer; assay: Phase II dose intense taxol with G-CSF support: disease response and survival; assay type: in vivo, human
Excerpt: A total of 47 patients were included in this study. All patients had recurrent advanced stage epithelial ovarian cancer confirmed on histologic review at the Laboratory of Pathology, National Cancer Institute (NCI). Borderline, mixed, and germ cell histologies were excluded.
A complete response (CR) was defined as patients having a complete resolution of disease as determined by both physical and radiographic examination as well as normalization of CA-125 lasting at least 4 weeks. A partial response (PR) patient was defined as having a greater than 50% reduction in the sum of the products of bidimensional measurements of all sites of disease as determined by both physical and radiographic analysis which lasted at least 4 weeks, and wherein no development of new lesions was observed. A minor response (MR) patient was defined as having greater than 25% but less than 50% reduction in the sum of the products of the perpendicular diameters of all measurable lesions and wherein no new sites of disease were observed. A stable disease (SD) was defined as patients having less than a 25% increase or less than a 25% reduction in sum of the product of the perpendicular diameters of all measurable lesions in response to therapy, without development of new lesions, for at least 4 weeks. Progressive disease (PD) was defined as patients having an increase of at least 25% in the sum of the products of the perpendicular diameters of all measurable lesions and/or the development of new lesions.
CA-125 levels were followed in all patients but were not used to define a patient's response except in one situation.

ovarian cancer [3] = assay: Published studies of taxol without G-CSF: response rate; assay type: in vivo, human; conditions: 33 of 110 patients
Excerpt: This agent is derived from the bark of the Western Yew tree, taxus brevifolia (Chabner, PPO Update, 5 (9), 1-10 (1991); Rowinsky et al., J. Nat'Cancer Inst., 82, 1247-1259 (1990)).

ovarian cancer [4] = conditions: cited from earlier work; for Response rate: taxol without G-CSF
[5] = in vivo; cited from earlier work
[6] = Nerve conduction studies in two patients with grade 3 polyneuropathy; conditions: for MAP Amplitude Percent Decrement / MAP Amplitude Lowest on Taxol: Motor; for SAP Amplitude Percent Decrement / SAP Amplitude Lowest on Taxol: Sensory
Description: In two of these patients who developed clinical evidence of neuropathy, the studies were repeated on three occasions in case 1 and once in case 2. In all 12 patients, maximal motor and sensory conduction velocities and response amplitudes were recorded for the median or ulnar nerve in the upper limb and for the peroneal and sural nerves in the lower limb.

[7] = Totals, all dose levels 170-300 mg/m^2, 14 patients assessable
[8] = Totals, all dose levels 170-300 mg/m^2, 14 patients assessable, listed as taxol
[9] = taxol 170 mg/m^2, 2 patients assessable
[10] = taxol 200 mg/m^2, 3 patients assessable
[11] = taxol 250 mg/m^2, 6 patients assessable
[12] = taxol 300 mg/m^2, 3 patients assessable
[13] = dose intense taxol with G-CSF, 44 assessable patients
[14] = dose intense taxol with G-CSF, 44 assessable patients, listed as taxol
[15] = nineteen patients treated until CR or progression

For CC(=O)O[C@H]1C(=O)[C@@]2(C)[C@H]([C@H](OC(=O)c3ccccc3)[C@]3(O)C[C@H](OC(=O)[C@H](O)[C@@H](NC(=O)c4ccccc4)c4ccccc4)C(C)=C1C3(C)C)[C@]1(OC(C)=O)CO[C@@H]1C[C@@H]2O [Taxol, taxol], the “Patients with an objective response to therapy” value ([1]; Five of 14 assessable patients, all dose levels) was 36%, the “No. CCR (clinical complete response)” value [1, 7] was 1 and the “No. MR (minor response)” value [1, 7] was 5. For the same molecule, the “No. NR (no response; progressive disease on therapy)” value [1, 7] was 4, the “No. PR (partial response)” value [1, 7] was 4 and the “No. CCR (clinical complete response)” value [1, 8] was “one”. For the same molecule, the “No. MR (minor response)” value [1, 8] was “Five”, the “No. NR (no response; progressive disease on therapy)” value [1, 8] was “Four” and the “No. PR (partial response)” value [1, 8] was “four”. For the same molecule, the “Reductions in tumor mass in patients with a minor response” value ([1]; five patients) was 30% to 46%, the “Response durations for PR” value ([1]; phase I, individual PR patients) was 30 weeks and ≥ 25 weeks and ≥ 23 weeks and 11 weeks and the “Response duration for CCR” value ([1]; phase I, the one CCR patient) was at least 30 weeks. The “No. NR (no response)” value [1, 9] was 1, the “No. PR (partial response)” value [1, 9] was 1 and the “No. CCR (clinical complete response)” value [1, 10] was 1. The “No. MR (minor response)” value [1, 10] was 1, the “No. NR (no response)” value [1, 10] was 1 and the “No. MR (minor response)” value [1, 11] was 3. The “No. NR (no response)” value [1, 11] was 2, the “No. PR (partial response)” value [1, 11] was 2 and the “No. MR (minor response)” value [1, 12] was 1. The “No. PR (partial response)” value [1, 12] was 2, the “Overall objective response rate” value ([2]; 21/44, 95% CI: 33-63%, taxol 250 mg/m^2/21 days with G-CSF) was 48% and the “Survival at one year” value ([2]; 95% confidence interval, 25-67%) was 45.3%. The Median survival time ([2]; Kaplan-Meier, phase II) was 11.5 months, the “CR, % of Cohort” value [2, 13] was 14% and the “CR, No. of Patients” value [2, 13] was 6. The “MR, % of Cohort” value [2, 13] was 11%, the “MR, No. of Patients” value [2, 13] was 5 and the “NR, % of Cohort” value [2, 13] was 25%. For the same molecule, the “NR, No. of Patients” value [2, 13] was 11, the “PR, % of Cohort” value [2, 13] was 34% and the “PR, No. of Patients” value [2, 13] was 15. The “CR, No. of Patients” value [2, 14] was “Six”, the “MR, No. of Patients” value [2, 14] was “five” and the “PR, No. of Patients” value [2, 14] was “Fifteen”. The “Median number of cycles required to reach an objective response” value [2, 15] was “four”, the “Number of cycles required to reach an objective response, range” value [2, 15] was “two to eight” and the Objective response rate ([2]; taxol about 250 mg/m^2/ 21 days) was “about 50%”. The “Increase in the response rate versus standard dose” value ([2]; taxol about 250 mg/m^2/ 21 days vs standard dose) was 67%, the “Response rate, three combined studies” value (ovarian cancer [3]) was 30% and the Objective response rate (ovarian cancer [4]; "standard" dose of taxol (about 135 mg/m^2/ 21 days)) was “about 30%”. The Response rate (ovarian cancer [4]; Einzig et al.) was 21%, the Response rate (ovarian cancer [4]; Gynecologic Oncology Group (Thigpen et al.)) was 36% and the Response rate (ovarian cancer [4]; McGuire et al.) was 33%. The “Patients with objective responses” value (ovarian cancer [4]; taxol 110 to 200 mg/m^2, cisplatin-sensitive and cisplatin-resistant advanced stage epithelial ovarian cancer) was “about 30%”, the “Taxol dosage level above which severe neurotoxicity (peripheral neuropathy) is experienced” value [5] was “above 300 mg/m^2/ 21 days” and the “MAP Amplitude Percent Decrement” value ([6]; Median nerve, case 2) was “None”. The “MAP Amplitude Lowest on Taxol” value ([6]; Median nerve, case 2, control 10.5 mV) was 10.8 mV, the “MAP Amplitude Percent Decrement” value ([6]; Peroneal nerve, case 1) was 49% and the “MAP Amplitude Lowest on Taxol” value ([6]; Peroneal nerve, case 1, control 3.9 mV) was 1.9 mV. For the same molecule, the “MAP Amplitude Percent Decrement” value ([6]; Peroneal nerve, case 2) was “None”, the “MAP Amplitude Lowest on Taxol” value ([6]; Peroneal nerve, case 2, control 2.7 mV) was 2.7 mV and the “MAP Amplitude Percent Decrement” value ([6]; Ulnar nerve, case 1) was “None”. The “MAP Amplitude Lowest on Taxol” value ([6]; Ulnar nerve, case 1, control 6.9 mV) was 7.1 mV, the “SAP Amplitude Percent Decrement” value ([6]; Median nerve, case 2) was 13% and the “SAP Amplitude Lowest on Taxol” value ([6]; Median nerve, case 2, control 69 μV) was 60 μV. The “SAP Amplitude Percent Decrement” value ([6]; Sural nerve, case 1) was 75%, the “SAP Amplitude Lowest on Taxol” value ([6]; Sural nerve, case 1, control 8 μV) was 2 μV and the “SAP Amplitude Percent Decrement” value ([6]; Sural nerve, case 2) was 44%. For the same molecule, the “SAP Amplitude Lowest on Taxol” value ([6]; Sural nerve, case 2, control 32 μV) was 18 μV, the “SAP Amplitude Percent Decrement” value ([6]; Ulnar nerve, case 1) was 62% and the “SAP Amplitude Lowest on Taxol” value ([6]; Ulnar nerve, case 1, control 19 μV) was 6 μV.
